Measured values: paper PMC8957573 (Journal of Natural Products, 2022)

Target: T1, TAK1 (Homo sapiens, UniProt O43318)
T1 sequence (O43318 1-303 limits assumed): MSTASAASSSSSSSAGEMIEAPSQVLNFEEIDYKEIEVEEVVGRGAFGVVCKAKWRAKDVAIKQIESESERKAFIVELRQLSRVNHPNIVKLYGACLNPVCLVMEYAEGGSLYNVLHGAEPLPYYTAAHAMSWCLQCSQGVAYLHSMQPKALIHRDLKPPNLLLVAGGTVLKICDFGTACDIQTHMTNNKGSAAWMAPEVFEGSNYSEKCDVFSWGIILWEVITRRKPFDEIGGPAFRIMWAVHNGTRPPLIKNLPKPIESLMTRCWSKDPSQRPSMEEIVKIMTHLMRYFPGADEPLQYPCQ
Test: TAK1 inhibition assay
Format: biochemical
Conditions: cis-enone RALs

In the case of `COc1cc(O)c2c(c1)[C@H]1O[C@@H]1C[C@H](O)[C@H](O)C(=O)/C=C\C[C@H](C)OC2=O` [Hypothemycin (1), Hypothemycin], the “Inhibitory activity against TAK1 (in words)” value is reported as “inhibit TAK1”.
